According to patent publication US4681966A, “Intermediate for thiol based collagenase inhibitors” (G. D. Searle & Co., priority 1986, dated 1987):

Target: T1, Human Rheumatoid Synovial collagenase (Homo sapiens, UniProt P03956)
T1 construct: Synovial collagenase; from tissue; host or cells: human rheumatoid synovium (from the enzyme's printed name)
T1 sequence (P03956 100-469): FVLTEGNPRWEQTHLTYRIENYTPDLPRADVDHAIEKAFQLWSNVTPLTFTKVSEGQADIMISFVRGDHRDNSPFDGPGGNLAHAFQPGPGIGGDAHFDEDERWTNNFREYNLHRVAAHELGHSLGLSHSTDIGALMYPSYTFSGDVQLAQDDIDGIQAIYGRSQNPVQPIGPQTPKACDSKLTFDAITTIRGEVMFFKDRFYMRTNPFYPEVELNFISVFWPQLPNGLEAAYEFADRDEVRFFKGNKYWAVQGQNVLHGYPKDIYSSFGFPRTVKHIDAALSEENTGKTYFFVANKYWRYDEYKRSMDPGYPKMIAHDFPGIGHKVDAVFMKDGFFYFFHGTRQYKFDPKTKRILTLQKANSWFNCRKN
Assay: Inhibition of collagenase: acetyl 14C collagen degradation (Cawston and Barrett), concentration effecting 50% inhibition
Format: biochemical
Conditions: Table 3; comparison R1 = H vs CH3; 37° C., 16 hours, pH 7.6; read-out: IC50 against human rheumatoid sinovial [collagenase]
Procedure: This was determined following the procedure of Cawston and Barrett, Anal. Biochem,. 99, 340-345 (1979) whereby the 1 mM of the inhibitor being tested or dilutions thereof are incubated at 37° C. for 16 hours with native collagen and collagenase (buffered with Tris HCl--CaCl2; pH 7.6). The collagen is acetyl ^14 C collagen. The samples are centrifuged to sediment undigested collagen and an aliquot of the radiactive supernatant removed for assay on a scintillation counter as a measure of hydrolysis. The collagenase activity in the presence of 1 mM inhibitor, or a dilution thereof, is compared to activity in a control devoid of inhibitor and the results reported as that inhibitor concentration effecting 50% inhibition of the collagenase.
This was determined following the procedure of Cawston and Barrett, Anal. Biochem., 99, 340-345 (1979) whereby the 1 mM of the inhibitor being tested or dilutions thereof are incubated at 37° C. for 16 hours with native collagen and collagenase (buffered with Tris HCl--CaCl2; pH 7.6). The collagen is acetyl […] collagen. The samples are centrifuged to sediment undigested collagen and an aliquot of the radioactive supernatant removed for assay on a scintillation counter as a measure of hydrolysis. […]

Compound: CNC(=O)[C@@H](NC(=O)C(CC(C)C)C(C)S)[C@@H](C)OCc1ccccc1 (stereo partly drawn) [Example 6 A, N-[2-(1-Mercaptoethyl)-4-methylpentanoyl]-O-benzyl-L-threonine N-Methylamide]
- IC50: 450 nM
